# Results taken from ChEMBL document CHEMBL3507680, “University of Dundee, Gates Library screen for HepG2 cell viability”.
# Assay: Human HepG2 cell viability assay in 384 well format
# Type: toxicity, cell-based
# Design: dose 125 nL, time 70.5 hour; concentration not given beside the values
# Conditions: HepG2 cells, read-out: Inhibition
row,SMILES,cytotoxicity at 70.5 h
1,Cc1ccnn1CCCNC(=O)C1CCN(S(C)(=O)=O)CC1,-1.25%
2,COCCC(=O)N(C)CCC1=CCN(C)CC1,33%
3,Cc1ccccc1OCC1CCCN(C(=O)CN(C)C2CCNCC2)C1 (stereo not given),-4.15%
4,Cc1cc(C)n(Cc2ccc(-c3noc(C(=O)NCCCO)n3)cc2)n1,-21.4%
5,Cc1c(C(=O)N[C@@H]2CC[C@@H](N3CCCC3)[C@@H]2O)[nH]c2ccc(F)cc12,6.16%
6,COC(=O)N1CCCC(NC(=O)NCc2csc(C)n2)C1 (stereo not given),-10.6%
7,CCc1cnc(CN(C)C2CCN(CCCS(=O)(=O)NC)C2)o1 (stereo not given),2.84%
8,CCc1nc(NCCCn2cccn2)c2c(n1)c(C)nn2C,-1.69%
9,CC(=O)N1CCCCCC1C1CCN(Cc2nc(C(C)C)no2)CC1 (stereo not given),0.62%
10,O=c1[nH]nc2nc(N3CCOCC3)ccn12,-1%
11,CC(C)(C)n1ncc2c1NC(=O)CSC2c1ccsc1 (stereo not given),-13.1%
12,CCOc1ccc(NC(=O)c2cc(C)c(C)o2)cc1CO,26.7%
13,CC(C)C1CN(S(=O)(=O)Cc2cccc(C#N)c2)CCS1 (stereo not given),-9.85%
14,CC(C)c1nc(C2CCCN2c2cnc3ccccc3n2)no1 (stereo not given),-6.53%
15,Cc1ccc(OCc2nnc(SCC3CCCN(C)C3)o2)cc1 (stereo not given),-8.56%
16,CCC[C@H]1CN(S(C)(=O)=O)C[C@@H]1NC(=O)COC(C)C,-5.47%
17,COc1cc(C)ccc1OCC(=O)NS(=O)(=O)c1cc(F)ccc1F,-4.22%
18,O=C1CC(NCc2ccncc2)CN1Cc1cccc(F)c1 (stereo not given),1.94%
19,CC(C)n1[nH]c(=O)c2c1NC(=O)CC2C1CCCCC1 (stereo not given),4.13%
20,COCCN(CCOC)Cc1nc2c(cnn2C)c(=O)[nH]1,7%
21,Cc1ccc(C(=O)N2C[C@@H]3CC[C@H](C2)N(Cc2ccccc2)C3)cn1,17.8%
22,CS(=O)(=O)N1C[C@@H]2COC[C@H](C(=O)Nc3cnccn3)[C@@H]2C1,59.3%
23,CN(CC(O)COc1ccc(C(F)(F)F)cc1)C(=O)Nc1nncs1 (stereo not given),19.7%

row,SMILES,cytotoxicity at 70.5 h
1,CCN1CCCC(CNC(=O)CCc2ccc(OC)c(F)c2)C1 (stereo not given),-14.6%
2,O=C(c1cc(-c2ccco2)cs1)N1CCCC1,-16.3%
3,Cc1nsc(N2CCCN(C(=O)NCc3cc(C)on3)CC2)n1,-1.32%
4,CC(=O)NCC(=O)N1CCN(CC2CC2)c2ncccc2C1,-9.1%
5,Cc1nccn1-c1cc(CNC(=O)CCS(=O)(=O)C2CCCC2)ccn1,10.7%
6,CCc1nc(CN2CCCC(NCc3nc4cccnc4[nH]3)C2)no1 (stereo not given),18.9%
7,CNC(=O)Cc1ccc(NC(=O)NCC(C)c2ncc(C)s2)cc1 (stereo not given),-12.5%
8,CCNC(=O)c1ccc2c(c1)nc1n2CCN(C(C)C)C1,-9.53%
9,Cc1nn(CCN2CCSCC2)cc1CNCc1ccccn1,-5.69%
10,Cc1sc2c(C3CCCNC3)nc(Nc3cccc(F)c3)n2c1C (stereo not given),-5.08%
11,Cc1cnn(CC(C)NCC(=O)NC2CCOCC2)c1 (stereo not given),18.5%
12,Cc1ccnc(CC(C)N(C)Cc2ccc3c(c2)OCCO3)c1 (stereo not given),-0.147%
13,COc1ccc(OCCC(=O)N2CCCC2Cn2cccn2)cc1 (stereo not given),0.4%
14,Cc1ccc(S(=O)(=O)N2CC[C@@H]3C[C@H](NC(=O)c4ccncc4)[C@@H]32)cc1,-2.83%
15,Cc1cc(N2CCC(C(=O)O)(n3ccc(C(C)C)n3)CC2)nc(N)n1,6.37%
16,O=C1CC[C@H]2[C@@H](CCN2Cc2ccco2)N1,-8.59%
17,COCCN(C(=O)c1nc(-c2ccco2)sc1C)C1CC1,-2.88%
18,O=C(CCc1ccccc1)Nc1ncccc1OC(F)F,-0.101%
19,CCNC(=O)N(C)CCCc1n[nH]c(N)c1C#N,17.3%
20,CN(C)C(=O)CN1C(=O)CCC12CCN(Cc1cccs1)CC2,9.34%
21,Cn1cc(CN2C[C@@H]3COC[C@]3(COc3ccc(C#N)cn3)C2)cn1,-10.6%
22,Cc1cncc(C2CCCN(C(=O)c3cccn3C)C2)n1 (stereo not given),-5.17%
23,CCSc1ccc(C(=O)N2CCCCC2C(=O)N2CCCC2)cn1 (stereo not given),-0.733%

row,SMILES,cytotoxicity at 70.5 h
1,COCCN1CCCC(CCCc2ccccn2)(C(N)=O)C1 (stereo not given),-6.05%
2,CCOc1cc(C)nc(N2CCN(C(=O)CC)CC2)n1,-8.45%
3,Cc1cccc2[nH]c(C3CCN(C(=O)c4cnc[nH]c4=O)CC3)nc12,-1.84%
4,CO[C@@H]1CC[C@H]2[C@H]1OCCN2Cc1ccc(F)c(F)c1,-9.19%
5,Cc1cccc(OCCCN2CCC(N(C)Cc3noc(C)n3)C2)c1 (stereo not given),25.5%
6,COCCNc1cc(-c2ccccc2C(N)=O)c2cc[nH]c2n1,-10.4%
7,CCn1cc(NC(=O)NC(CO)Cc2c[nH]c3ccccc23)cn1 (stereo not given),-4.69%
8,CC(=O)Nc1ccc(CNC2CC(=O)N(Cc3cccc(F)c3)C2)cc1 (stereo not given),-8.05%
9,O=C(O)c1ccnc(-c2ccnc(NCCc3ccc(F)cc3)n2)c1,-5.83%
10,Cc1nc(C2CCCN(C(=O)CCCn3cccn3)C2)no1 (stereo not given),-11.8%
11,Cc1oc(C(=O)O)cc1S(=O)(=O)Nc1cc(F)ccc1F,5.73%
12,N#CCSCC(=O)NCC1CCCCC1,-7.13%
13,COc1nn(C)c2c1CCCN(C(=O)c1ccccc1)C2,-5.54%
14,Cc1noc(CCNC(=O)C2CSCN2C(=O)C2CCCC2)n1 (stereo not given),-5.54%
15,COC(=O)[C@H]1C[C@@H](O)CCN1S(=O)(=O)c1cc(Cl)ccc1OC,-11.2%
16,O=C1CC[C@H](C(=O)N(Cc2cccc(Br)c2)C2CC2)N1,2.31%
17,COc1c(CNCc2ccc(N(C)C)nc2)c(C(C)C)nn1C,1.68%
18,CN1CCC(NC(=O)Nc2ccc(Cl)c(F)c2)C1=O (stereo not given),2.58%
19,O=S(=O)(C1CC1)N1C[C@@H]2CN(Cc3ccoc3)CCO[C@@H]2C1,-15.4%
20,Cc1ccccc1CCC(=O)N1CCCC(c2cc(C(N)=O)[nH]n2)C1 (stereo not given),6.15%
21,COC(=O)c1ccc(C(=O)N2CCCC(Nc3ccc(F)cc3)C2)cc1 (stereo not given),-1.16%
22,Cn1cc(C2COC3(CCN(C(=O)c4ccccn4)CC3)C2)cn1 (stereo not given),-12.1%
23,Cc1cc(C(=O)N2CCC3(CC2)c2nc[nH]c2CCN3CC(C)C)no1,7%

row,SMILES,cytotoxicity at 70.5 h
1,COc1cccc(/C=C/CCN2CCCN(C(C)=O)CC2)c1,-6.2%
2,Cc1cc(C(=O)Nc2ccc(CN3CCOCC3)cn2)n(C)n1,-5.67%
3,O=C(O)c1csc(NCCc2ccccc2)n1,-1.2%
4,Cc1cc2c(cc1C)C(NC1CC1)CCCO2 (stereo not given),0.0987%
5,O=C(CC(F)(F)F)N1C[C@H]2CCN[C@H]2C1,-2.74%
6,CCNc1ccnc(NCc2cn3nc(C)sc3n2)n1,-15.7%
7,C[C@H]1CN(C)C[C@@]12COCCN(C(=O)Cc1ccccc1)C2,0.777%
8,COc1ccc(OC)c(C(C)NC(=O)Nc2nnc(C)s2)c1 (stereo not given),-5.29%
9,O=C(O)[C@]12CCCN(C3CCOC3)C[C@H]1CN(c1ncccn1)C2 (stereo not given in full),-2.93%
10,Cc1ccc(Sc2ccc(CN3CCC4(CCCNC4=O)C3)o2)cc1 (stereo not given),5.69%
11,CC(C)c1noc(OCC(=O)N(C)C(C)C)n1,-12.3%
12,COc1c(C2CCCN2C(=O)Cc2c(C)noc2C)c(C)nn1C (stereo not given),11%
13,CS(=O)(=O)NC[C@@H]1OC[C@H]2CN(C(=O)c3ccccn3)CC[C@H]21,-3.81%
14,Cc1cccc(C)c1NC(=O)CCNC(=O)c1ccoc1,-3.89%
15,COCCN1C(=O)CCC12CCCN(C(=O)NC(C)C)CC2 (stereo not given),7.1%
16,Fc1ccccc1-c1noc2c1CN(CCN1CCOCC1)CC2,7.36%
17,COc1ncc(NC(=O)c2ccco2)c(OC)n1,7.73%
18,COCCC1CN(c2nc(-c3ccccc3)nc3c2CCNC3)CCO1 (stereo not given),25.4%
19,CC(C)(C)c1nnc(CN2CCC(c3cc4ccccc4[nH]3)CC2)o1,17.4%
20,N#Cc1ccc(SCCC(=O)N(Cc2cccnc2)C2CC2)cc1,-7.83%
21,c1cncc(CNc2cccc(OCCN3CCCCC3)c2)c1,-11.5%
22,O=C(C1CCSCC1)N1CCC2(CC1)COC(COCC1CC1)C2 (stereo not given),-11.3%
23,CCc1nc(NCc2ccccn2)c2c(n1)c(C)nn2C,30.9%

row,SMILES,cytotoxicity at 70.5 h
1,CCN1C(=O)CCCC12CCCN(C(=O)c1occc1C)C2 (stereo not given),-10.4%
2,Cc1ccnn1CCC(=O)N1CCOC(CCc2ccccc2)C1 (stereo not given),-7.51%
3,O=C(CN1CC(c2nc(-c3ccco3)no2)C1)NCc1ccc(F)cc1,0.546%
4,CSc1nc2ccsc2c(=O)n1CC(=O)NC1CCCC1,-6.44%
5,O=C(c1cncs1)N1CCOCC(Cc2ccccn2)C1 (stereo not given),-2.59%
6,COCCOCCNc1cncc(Br)c1,-0.213%
7,COCC1CC2(CCN(Cc3ccoc3)CC2)CN1Cc1ccccn1 (stereo not given),16.1%
8,CNc1nnc(SCc2nnc(C(C)(C)C)o2)s1,15.4%
9,COCc1ccccc1NC(=O)NCc1ccc(OCC2CC2)nc1,-7.17%
10,OCCCN1CCc2[nH]nc(C(c3ccccc3)c3ccccc3)c2C1,-3.77%
11,O=C(NCCc1ccncc1)c1cccc(S(=O)(=O)N[C@@H]2CCNC2)c1,19%
12,Cc1cc(CN(C)CC2CCCN(CCc3ccc(Cl)cc3)C2)[nH]n1 (stereo not given),-4.86%
13,CN1N=C(c2nc(Cc3cccc(Br)c3)no2)CCC1=O,-2.2%
14,Cc1ccc(C(=O)NC2CCOc3ccccc32)cc1S(C)(=O)=O (stereo not given),27.5%
15,CN(CC(=O)N1CCCCC1c1nc(C(C)(C)C)cs1)C1CC1 (stereo not given),1.94%
16,CNc1nc(C(=O)N2CCC3(CCCN(CCOC)C3=O)C2)cs1 (stereo not given),-3.96%
17,O=C(NCc1cccs1)NCC1(O)CCc2ccccc2C1 (stereo not given),-5.04%
18,COCCN1CCC(CNc2nccc(-c3cnn(C)c3)n2)CC1,-3.27%
19,CCNS(=O)(=O)C1CCN(C(=O)c2c(F)cc(F)cc2F)C1 (stereo not given),-2.04%
20,Cc1cc(F)ccc1NC(=O)Cn1cc(C(=O)O)ccc1=O,-18.2%
21,Cc1nc(NCc2nncn2C2CC2)c2c(CC(C)C)csc2n1,20%
22,COC(C)(C)CC(C)NC(=O)Nc1ccccn1 (stereo not given),-2.34%
23,COc1ccnc(N(C)Cc2c(C)noc2C)n1,-3.59%
